# Data reported in patent US20250163057A1, “DCN-1 MODULATING COMPOUNDS AND METHODS OF USE THEREOF” (Cellarity, Inc., priority 2023, published 2025).
# Target: DCN1 protein (Homo sapiens (Human), UniProt Q96GG9)
# Assay: Intact Protein MS Analysis with the RapidFire-TOF System (covalent adduct formation)
# Type: binding
# Conditions: MS Emax; 400 nM DCN1, 3 hours at room temperature
# Description: An MS assay was performed to evaluate the ability of the compounds to covalently modify DCN-1.
# DCN1 protein, His-TEV-DCN1, were expressed in E. Coli. The His-tagged protein was first purified with an Ni-NTA column. The His-tag was cleaved using His-tag TEV protease and the His-tags were removed using a second Ni-NTA column. Protein purity was verified with SDS-PAGE and intact MS. DCN1 was dissolved in a buffer containing 25 mM Tris-HCl, 200 mM NaCl, and 1 mM DTT at 400 nM. 11 concentrations of compounds were added to the DCN1 solution and incubated at room temperature for 3 hours, unless otherwise specified. The reaction plates were quenched by adding 0.2% formic acid. […] The cartridge was re-equilibrated with loading buffer for 1 second before collection of the next sample. The Q-TOF was operated in TOF-only positive ionization mode set to the following parameters: Gas Temp=350 C, Drying Gas=7 l/min, Nebulizer=50 psi, Sheath Gas Temp=400 C, Sheath Gas Flow=12 l/min, Vcap=4000 V, Nozzle Voltage=1000 V, Fragmentor=125 V, Skimmer=65 V and Oct 1 RF Vpp=750V. Raw MS data files were deconvoluted and analyzed using the Agilent MassHunter Bioconfirm software package to identify both parent protein and expected compound adduct mass signatures.
# Sequence of DCN1 protein (Q96GG9 whole entry): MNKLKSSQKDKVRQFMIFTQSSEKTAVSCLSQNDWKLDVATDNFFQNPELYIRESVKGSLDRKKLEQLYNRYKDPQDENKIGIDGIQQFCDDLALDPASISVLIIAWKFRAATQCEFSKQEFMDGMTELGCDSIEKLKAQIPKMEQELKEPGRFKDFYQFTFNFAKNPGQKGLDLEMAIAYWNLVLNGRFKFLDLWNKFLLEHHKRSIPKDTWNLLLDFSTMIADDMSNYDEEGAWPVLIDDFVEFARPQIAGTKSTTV
row,SMILES,% Adduct Formation
1,CC#CC(=O)N[C@H](C)c1nn(-c2ccccc2)c2c1[C@H](c1ccc(F)cc1)[C@H](NC(=O)c1cccc(C(F)(F)F)c1)C(=O)N2CC (mixture of isomers) [Compound I-209],+ (MS Emax % adduct formation greater than or equal to 0.0 and less than or equal to 30.0)
2,CCN1C(=O)[C@@H](NC(=O)c2cccc(C(F)(F)F)c2)[C@@H](c2ccc(F)cc2)c2c([C@@H](C)NC(=O)/C=C/CN(C)C)nn(-c3ccccc3)c21 (mixture of isomers) [Compound I-210],+ (MS Emax % adduct formation greater than or equal to 0.0 and less than or equal to 30.0)
3,CCN1C(=O)[C@@H](NC(=O)c2cccc(C(F)(F)F)c2)[C@@H](c2ccc(F)cc2)c2c([C@H](C)NC(=O)C(C)Cl)nn(-c3ccccc3)c21 (mixture of isomers) [Compound I-211],+ (MS Emax % adduct formation greater than or equal to 0.0 and less than or equal to 30.0)
4,C=C(CN(C)C)C(=O)N[C@H](C)c1nn(-c2ccccc2)c2c1[C@H](c1ccc(F)cc1)[C@H](NC(=O)c1cccc(C(F)(F)F)c1)C(=O)N2CC (mixture of isomers) [Compound I-213],+++ (MS Emax % adduct formation greater than 80.0 and less than or equal to 100.0)
5,CCN1C(=O)[C@@H](NC(=O)c2cccc(C(F)(F)F)c2)[C@@H](c2ccc(F)cc2)c2c([C@@H](C)NS(=O)(=O)CCl)nn(-c3ccccc3)c21 (mixture of isomers) [Compound I-215],+ (MS Emax % adduct formation greater than or equal to 0.0 and less than or equal to 30.0)
6,CCN1C(=O)[C@@H](NC(=O)c2cccc(C(F)(F)F)c2)[C@@H](c2ccc(F)cc2)c2c([C@@H](C)NC(=O)C3=CCC3)nn(-c3ccccc3)c21 (mixture of isomers) [Compound I-237],+ (MS Emax % adduct formation greater than or equal to 0.0 and less than or equal to 30.0)
7,C/C=C/C(=O)N[C@H](C)c1nn(-c2ccccc2)c2c1[C@H](c1ccc(F)cc1)[C@H](NC(=O)c1cccc(C(F)(F)F)c1)C(=O)N2CC (mixture of isomers) [Compound I-238],+ (MS Emax % adduct formation greater than or equal to 0.0 and less than or equal to 30.0)
8,CCN1C(=O)[C@@H](NC(=O)c2cccc(C(F)(F)F)c2)[C@@H](c2ccc(F)cc2)c2c(CNC(=O)C(Cl)Cl)nn(-c3ccccc3)c21 (racemic) [Compound I-169],+ (MS Emax % adduct formation greater than or equal to 0.0 and less than or equal to 30.0)
9,CCN1C(=O)[C@@H](NC(=O)c2cccc(C(F)(F)F)c2)[C@@H](c2ccc(F)cc2)c2c(CN3C(=O)C=CC3=O)nn(-c3ccccc3)c21 (racemic) [Compound I-170],+ (MS Emax % adduct formation greater than or equal to 0.0 and less than or equal to 30.0)
10,CCN1C(=O)[C@@H](NC(=O)c2cccc(C(F)(F)F)c2)[C@@H](c2ccc(F)cc2)c2c(NC(=O)COc3c(F)c(F)cc(F)c3F)nn(-c3ccccc3)c21 (racemic) [Compound I-176],+ (MS Emax % adduct formation greater than or equal to 0.0 and less than or equal to 30.0)
11,CCN1C(=O)[C@@H](NC(=O)c2cccc(C(F)(F)F)c2)[C@@H](c2ccc(F)cc2)c2c(CNC(=O)COc3c(F)c(F)cc(F)c3F)nn(-c3ccccc3)c21 (racemic) [Compound I-182],+ (MS Emax % adduct formation greater than or equal to 0.0 and less than or equal to 30.0)
12,CCN1C(=O)[C@@H](NC(=O)c2cccc(C(F)(F)F)c2)[C@@H](c2ccc(F)cc2)c2c(CNC(=O)/C=C/CN3CCOCC3)nn(-c3ccccc3)c21 (racemic) [Compound I-183],+ (MS Emax % adduct formation greater than or equal to 0.0 and less than or equal to 30.0)
13,C=CS(=O)(=O)Nc1nn(-c2ccccc2)c2c1[C@H](c1ccc(F)cc1)[C@H](NC(=O)c1cccc(C(F)(F)F)c1)C(=O)N2CC (racemic) [Compound I-187],+++ (MS Emax % adduct formation greater than 80.0 and less than or equal to 100.0)
14,"C=C(C(=O)N(C)C)c1nn(-c2ccccc2)c2c1[C@H](c1ccc(F)cc1)[C@H](NC(=O)c1cccc(C(F)(F)F)c1)C(=O)N2CC (racemic) [Compound I-188, rac-N-((4R,5R)-3-(3-(dimethylamino)-3-oxoprop-1-en-2-yl)-7-ethyl-4-(4-fluorophenyl)-6-oxo-1-phenyl-4,5,6,7-tetrahydro-1H-pyrazolo[3,4-b]pyridine-5-yl)-3-(trifluoromethyl)benzamide]",+ (MS Emax % adduct formation greater than or equal to 0.0 and less than or equal to 30.0)
15,"CCN1C(=O)[C@@H](NC(=O)c2cccc(C(F)(F)F)c2)[C@@H](c2ccc(F)cc2)c2c(C=O)nn(-c3ccccc3)c21 (racemic) [Compound I-189, rac-N-((4R,5R)-7-ethyl-4-(4-fluorophenyl)-3-formyl-6-oxo-1-phenyl-4,5,6,7-tetrahydro-1H-pyrazolo[3,4-b]pyridine-5-yl)-3-(trifluoromethyl)benzamide]",+ (MS Emax % adduct formation greater than or equal to 0.0 and less than or equal to 30.0)
16,CCN1C(=O)[C@@H](NC(=O)c2cccc(C(F)(F)F)c2)[C@@H](c2ccc(F)cc2)c2c(CN3CC=CC3=O)nn(-c3ccccc3)c21 (racemic) [Compound I-193],+ (MS Emax % adduct formation greater than or equal to 0.0 and less than or equal to 30.0)
17,"CCN1C(=O)[C@@H](NC(=O)c2cccc(C(F)(F)F)c2)[C@@H](c2ccc(F)cc2)c2c(N3C=CC3=O)nn(-c3ccccc3)c21 (racemic) [Compound I-194, N-((4S,5S)-7-ethyl-4-(4-fluorophenyl)-6-oxo-3-(2-oxoazet-1(2H)-yl)-1-phenyl-4,5,6,7-tetrahydro-1H-pyrazolo[3,4-b]pyridine-5-yl)-3-(trifluoromethyl)benzamide]",+ (MS Emax % adduct formation greater than or equal to 0.0 and less than or equal to 30.0)
18,"C=C(C(=O)OCC)c1nn(-c2ccccc2)c2c1[C@H](c1ccc(F)cc1)[C@@H](NC(=O)c1cccc(C(F)(F)F)c1)C(=O)N2CC (racemic) [Compound I-195, rac-ethyl 2-((4R,5S)-7-ethyl-4-(4-fluorophenyl)-6-oxo-1-phenyl-5-(3-(trifluoromethyl)benzamido)-4,5,6,7-tetrahydro-1H-pyrazolo[3,4-b]pyridine-3-yl)acrylate]",+ (MS Emax % adduct formation greater than or equal to 0.0 and less than or equal to 30.0)
19,CCN1C(=O)[C@@H](NC(=O)c2cccc(C(F)(F)F)c2)[C@@H](c2ccc(F)cc2)c2c(CNS(=O)(=O)CCl)nn(-c3ccccc3)c21 (racemic) [Compound I-198],+ (MS Emax % adduct formation greater than or equal to 0.0 and less than or equal to 30.0)
20,"C#Cc1nn(-c2ccccc2)c2c1[C@H](c1ccc(F)cc1)[C@H](NC(=O)c1cccc(C(F)(F)F)c1)C(=O)N2CC (racemic) [Compound I-199, N-((4S,5S)-7-ethyl-3-ethynyl-4-(4-fluorophenyl)-6-oxo-1-phenyl-4,5,6,7-tetrahydro-1H-pyrazolo[3,4-b]pyridine-5-yl)-3-(trifluoromethyl)benzamide]",+ (MS Emax % adduct formation greater than or equal to 0.0 and less than or equal to 30.0)
21,CCN1C(=O)[C@@H](NC(=O)c2cccc(C(F)(F)F)c2)[C@@H](c2ccc(F)cc2)c2c(CN(C)C(=O)C3=CCC3)nn(-c3ccccc3)c21 (racemic) [Compound I-200],+ (MS Emax % adduct formation greater than or equal to 0.0 and less than or equal to 30.0)
22,"C=C(C(=O)O)c1nn(-c2ccccc2)c2c1[C@H](c1ccc(F)cc1)[C@@H](NC(=O)c1cccc(C(F)(F)F)c1)C(=O)N2CC (racemic) [Compound I-208, rac-2-((4R,5S)-7-ethyl-4-(4-fluorophenyl)-6-oxo-1-phenyl-5-(3-(trifluoromethyl)benzamido)-4,5,6,7-tetrahydro-1H-pyrazolo[3,4-b]pyridine-3-yl)acrylic acid]",+ (MS Emax % adduct formation greater than or equal to 0.0 and less than or equal to 30.0)
23,CCN1C(=O)[C@@H](NC(=O)c2cccc(C(F)(F)F)c2)[C@@H](c2ccc(F)cc2)c2c([C@H](C)NS(=O)(=O)CCl)nn(-c3ccccc3)c21 (racemic) [Compound I-214],+ (MS Emax % adduct formation greater than or equal to 0.0 and less than or equal to 30.0)
24,"CCN1C(=O)[C@@H](NC(=O)c2cccc(C(F)(F)F)c2)[C@@H](c2ccc(F)cc2)c2c(C(CCl)C(=O)N(C)C)nn(-c3ccccc3)c21 (mixture of isomers) [Compound I-216, rac-N-((4R,5R)-3-(3-chloro-1-(dimethylamino)-1-oxopropan-2-yl)-7-ethyl-4-(4-fluorophenyl)-6-oxo-1-phenyl-4,5,6,7-tetrahydro-1H-pyrazolo[3,4-b]pyridine-5-yl)-3-(trifluoromethyl)benzamide]",+ (MS Emax % adduct formation greater than or equal to 0.0 and less than or equal to 30.0)
